{"source": "patent US8604085B2", "about": "“Bupropion hydrobromide polymorphs” (Valeant International Bermuda, priority 2008, dated 2013)", "assay": "Slurry experiments at room temperature (thermodynamic stability of crystal forms, X-ray diffraction)", "assay_type": "physicochemical", "settings": "for Slurry Result / Slurry result, large scale: room temperature; for Slurry Result: form by XRD; for Slurry result, large scale: 0.5 g of powder in 10 mL", "experimental": "Slurry experiments of Form I were performed at room temperature to verify if Form I is the thermodynamic crystal form. 0.050 g of Form I was suspended in 2 ml of solvent and stirred for 1 week. The sample was filtered and analyzed by X-ray diffraction. In the large majority of the experiments, Form I converts into Form II. […] By 1,4-Dioxane, a new crystal form was obtained named Form V. See Table 46 for the Form I slurries results (7 days).\nFurther slurry experiments of Form I were performed at room temperature using 0.5 g of powder in 10 mL of solvent to confirm the results obtained even in large scale.\n0.050 g of Form I were suspended in 2 ml of solvent and stirred at room temperature for 4 weeks (30 days). The sample was filtered and analyzed by X-ray diffraction. By 1,4-Dioxane, Form V was obtained. By tetrahydrofuran, Form II and Form VII were obtained. […] See Table 47 for the Form I slurries results (30 days).\nSlurry experiments of mixtures of Form I and Form II were performed at room temperature to verify their thermodynamic stability. 0.040 g of Form I+0.040 g of Form II were suspended in 4 ml of solvent and stirred for 1 week (7 days). The samples were filtered and analyzed by X-ray diffraction. By 1,4-Dioxane, Form V was obtained. […] See Table 48 for the Form I+Form II slurries results (7 days).\nSlurry experiments of mixtures of Form II and Form III were performed at room temperature to verify their thermodynamic stability. 0.040 g of Form II+0.040 g of Form III were suspended in 4 ml of solvent and stirred for 1 week (7 days). The samples were filtered and analyzed by X-ray diffraction. By 1,4-Dioxane, Form V was obtained. […] See Table 49 for the Form II+Form III slurries results (7 days).\nSlurry experiments of mixtures of Form II and Form IV were performed at room temperature to verify their thermodynamic stability. 0.040 g of Form II+0.040 g of Form IV were suspended in 4 ml of solvent and stirred for 1 week (7 days). The samples were filtered and analyzed by X-ray diffraction. By 1,4-Dioxane, Form V was obtained. […] See Table 50 for the Form II+Form IV slurries results (7 days).\nSlurry experiments of mixtures of Form II and Form V were performed at room temperature to verify their thermodynamic stability. 0.040 g of Form II+0.040 g of Form V were suspended in 4 ml of solvent and stirred for 1 week (7 days). The samples were filtered and analyzed by X-ray diffraction. By 1,4-Dioxane, Form V was obtained. […] See Table 51 for the Form II+Form V slurries results (7 days).\nSlurry experiments of mixtures of Form II and Form VI were performed at room temperature to verify their thermodynamic stability. 0.040 g of Form II+0.040 g of Form VI were suspended in 4 ml of solvent and stirred for 1 week (7 days). The samples were filtered and analyzed by X-ray diffraction. By 1,4-Dioxane, Form V was obtained. […] See Table 52 for the Form II+Form VI slurries results (7 days).\nSlurry experiments of mixtures of Form II and Form VII were performed at room temperature to verify their thermodynamic stability. 0.040 g of Form II+0.040 g of Form VII were suspended in 4 ml of solvent and stirred for 1 week (7 days). The samples were filtered and analyzed by X-ray diffraction. By 1,4-Dioxane, Form V was obtained. […] See Table 53 for the Form II+Form VII slurries results (7 days).", "data": [{"smiles": "Br.CC(NC(C)(C)C)C(=O)c1cccc(Cl)c1", "note": "(single isomer, unassigned) [Form I]", "values": [{"measurement": "Thermodynamic stability of the crystal form as shown by slurry experiments", "value": "metastable form"}, {"measurement": "Slurry Result", "setting": "1,2-Dimethoxy Ethane, 7 days", "value": "Form II"}, {"measurement": "Slurry Result", "setting": "1,2-Dimethoxy Ethane, 30 days", "value": "Form II"}, {"measurement": "Slurry Result", "setting": "1,4-Dioxane, 7 days", "value": "Form V"}, {"measurement": "Slurry Result", "setting": "1,4-Dioxane, 30 days", "value": "Form V"}, {"measurement": "Slurry Result", "setting": "1-Octanol, 7 days", "value": "Form II"}, {"measurement": "Slurry Result", "setting": "1-Octanol, 30 days", "value": "Form II"}, {"measurement": "Slurry Result", "setting": "3-Pentanone, 7 days", "value": "Form II"}, {"measurement": "Slurry Result", "setting": "4-Methyl-2-Pentanone, 7 days", "value": "Form II"}, {"measurement": "Slurry Result", "setting": "4-Methyl-2-Pentanone, 30 days", "value": "Form II"}, {"measurement": "Slurry Result", "setting": "Acetone, 7 days", "value": "Form II"}, {"measurement": "Slurry Result", "setting": "Acetone, 30 days", "value": "Form II"}, {"measurement": "Slurry Result", "setting": "Benzonitrile, 7 days", "value": "Form II + VII"}, {"measurement": "Slurry Result", "setting": "Cyclohexane, 7 days", "value": "Form I"}, {"measurement": "Slurry Result", "setting": "Cyclohexane, 30 days", "value": "Form II"}, {"measurement": "Slurry Result", "setting": "Diethyl Carbonate, 7 days", "value": "Form II"}, {"measurement": "Slurry Result", "setting": "Diethyl Carbonate, 30 days", "value": "Form II"}, {"measurement": "Slurry Result", "setting": "Diethyl Ether, 30 days", "value": "Form II"}, {"measurement": "Slurry Result", "setting": "Diethyl ether, 7 days", "value": "Form II"}, {"measurement": "Slurry Result", "setting": "Ethyl Acetate (second line of the table), 30 days", "value": "Form II"}, {"measurement": "Slurry result, large scale", "setting": "Ethyl Acetate", "value": "convert into Form II"}, {"measurement": "Slurry Result", "setting": "Ethyl Benzoate, 7 days", "value": "Form II"}, {"measurement": "Slurry Result", "setting": "Ethyl Formate, 7 days", "value": "Form II"}, {"measurement": "Slurry Result", "setting": "Ethyl Formate, 30 days", "value": "Form II"}, {"measurement": "Slurry Result", "setting": "Ethyl acetate, 7 days", "value": "Form II"}, {"measurement": "Slurry Result", "setting": "Ethyl acetate, 30 days", "value": "Form II"}, {"measurement": "Slurry Result", "setting": "Iso-Propyl Ether, 7 days", "value": "Form II"}, {"measurement": "Slurry Result", "setting": "Iso-Propyl Ether, 30 days", "value": "Form II"}, {"measurement": "Slurry Result", "setting": "Isopropyl Acetate, 7 days", "value": "Form II"}, {"measurement": "Slurry Result", "setting": "Isopropyl Acetate, 30 days", "value": "Form II"}, {"measurement": "Slurry Result", "setting": "Mesitylene, 7 days", "value": "Form II"}, {"measurement": "Slurry Result", "setting": "Methyl Benzoate, 7 days", "value": "Form II"}, {"measurement": "Slurry Result", "setting": "Methyl Benzoate, 30 days", "value": "Form II"}, {"measurement": "Slurry Result", "setting": "Methyl Ethyl Ketone, 7 days", "value": "Form II"}, {"measurement": "Slurry Result", "setting": "Methyl Ethyl Ketone, 30 days", "value": "Form II"}, {"measurement": "Slurry Result", "setting": "Methyl-Cyclohexane, 7 days", "value": "Form I"}, {"measurement": "Slurry Result", "setting": "Methyl-Cyclohexane, 30 days", "value": "Form II"}, {"measurement": "Slurry Result", "setting": "Nitrobenzene, 7 days", "value": "Form II"}, {"measurement": "Slurry Result", "setting": "Propyl Acetate, 7 days", "value": "Form II"}, {"measurement": "Slurry Result", "setting": "Tert-Butanol, 7 days", "value": "Form II"}, {"measurement": "Slurry Result", "setting": "Tetrahydrofuran, 7 days", "value": "Form II"}, {"measurement": "Slurry Result", "setting": "Tetrahydrofuran, 30 days", "value": "Form II + VII"}, {"measurement": "Slurry Result", "setting": "Toluene, 7 days", "value": "Form II"}, {"measurement": "Slurry Result", "setting": "Toluene, 30 days", "value": "Form II"}, {"measurement": "Slurry Result", "setting": "n-Hexan, 7 days", "value": "Form II"}, {"measurement": "Slurry Result", "setting": "n-Hexan, 30 days", "value": "Form II"}, {"measurement": "Slurry result, large scale", "setting": "p-Xylene", "value": "convert into Form II"}, {"measurement": "Slurry Result", "setting": "p-Xylene, 7 days", "value": "Form II"}, {"measurement": "Slurry Result", "setting": "p-Xylene, 30 days", "value": "Form II"}, {"measurement": "Slurry Result", "setting": "t-Butyl Methyl Ether, 7 days", "value": "Form II"}, {"measurement": "Slurry Result", "setting": "t-Butyl Methyl Ether, 30 days", "value": "Form II"}]}]}
